Source: the supplement of paper PMC10307832

These cell lines were tested with N[C@@H]1CCCN(c2c(/C=C3\SC(=O)NC3=O)cccc2-c2ccccc2)C1 [AZD1208] + CC(C)C[C@H](NC(=O)[C@H](Cc1ccccc1)NC(=O)c1cnccn1)B(O)O [Bortezomib] (partner 0.002 µM) (assay: relative viability (nuclei count vs DMSO), 5 days (fraction); higher = more cells survive). Conditions: first compound 0.08 µM.
Method in brief: (§1)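 Cells from lung cancer lines were seeded into 1536-well plates and, one day later, dosed by pin tool. Treatments were either a single drug or a fixed dose of an anchor drug with five library-drug doses (not always all listed) in √10 steps. After 5 days, nuclei were stained in a one-step fixation (final 0.05% Triton X-100, 1% formaldehyde, 1 ug/ml Hoechst) and counted on 4× images, and relative viability is the treated-to-vehicle nuclei ratio, as the median of duplicate plates.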

Cell Line | relative viability
NCI-H460 | 1.04
NCI-H1734 | 0.831
NCI-H520 | 0.597
NCI-H2405 | 0.986
SW 1573 | 0.963
201T | 1.13
NCI-H1915 | 0.976
HCC-827 | 1.13
LXF-289 | 1.04
NCI-H2347 | 0.933
NCI-H650 | 1.16
CAL-12T | 1.32
NCI-H1651 | 0.978
EPLC-272H | 0.878
NCI-H23 | 1.01
NCI-H1355 | 1.29
NCI-H322M | 1.21
NCI-H1437 | 0.542
NCI-H1755 | 0.97
NCI-H2085 | 1.07
HCC-15 | 1.06
PC-3 [JPC-3] | 0.833
EKVX | 1.17
LC-2-ad | 1.01
NCI-H1975 | 0.415
SK-LU-1 | 1.36
NCI-H661 | 0.665
RERF-LC-KJ | 1.1

Same assay, conditions: first compound 0.253 µM

Cell Line | relative viability
NCI-H460 | 1.63
NCI-H1734 | 1.05
NCI-H520 | 0.718
NCI-H2405 | 1.01
SW 1573 | 1.14
201T | 1.14
NCI-H1915 | 1.07
HCC-827 | 1.06
LXF-289 | 1.1
NCI-H2347 | 0.734
NCI-H650 | 0.774
CAL-12T | 1.03
NCI-H1651 | 0.925
EPLC-272H | 0.806
NCI-H23 | 1.07
NCI-H1355 | 1.09
NCI-H322M | 1.31
NCI-H1437 | 0.754
NCI-H1755 | 1.06
NCI-H2085 | 1.2
HCC-15 | 1.21
PC-3 [JPC-3] | 0.972
EKVX | 1.21
LC-2-ad | 0.979
NCI-H1975 | 0.404
SK-LU-1 | 1.24
NCI-H661 | 0.817
RERF-LC-KJ | 1.21

Same assay, conditions: first compound 0.8 µM

Cell Line | relative viability
NCI-H460 | 1.06
NCI-H1734 | 0.811
NCI-H520 | 0.311
NCI-H2405 | 0.936
SW 1573 | 0.935
201T | 1.13
NCI-H1915 | 0.956
HCC-827 | 0.97
LXF-289 | 0.999
NCI-H2347 | 0.822
NCI-H650 | 0.788
CAL-12T | 0.887
NCI-H1651 | 0.858
EPLC-272H | 0.924
NCI-H23 | 0.926
NCI-H1355 | 1.15
NCI-H322M | 1.21
NCI-H1437 | 0.584
NCI-H1755 | 0.96
NCI-H2085 | 0.938
HCC-15 | 1.07
PC-3 [JPC-3] | 0.887
EKVX | 1.03
LC-2-ad | 0.978
NCI-H1975 | 0.304
SK-LU-1 | 1.09
NCI-H661 | 0.724
RERF-LC-KJ | 1.06

Same assay, conditions: first compound 2.53 µM

Cell Line | relative viability
NCI-H460 | 1.13
NCI-H1734 | 0.991
NCI-H520 | 0.428
NCI-H2405 | 1.01
SW 1573 | 0.907
201T | 1.16
NCI-H1915 | 0.94
HCC-827 | 1.07
LXF-289 | 1.07
NCI-H2347 | 0.791
NCI-H650 | 0.438
CAL-12T | 1.03
NCI-H1651 | 0.96
EPLC-272H | 0.927
NCI-H23 | 1.14
NCI-H1355 | 1.2
NCI-H322M | 1.15
NCI-H1437 | 0.42
NCI-H1755 | 1.02
NCI-H2085 | 1.14
HCC-15 | 1.08
PC-3 [JPC-3] | 0.927
EKVX | 1.2
LC-2-ad | 0.819
NCI-H1975 | 0.353
SK-LU-1 | 0.996
NCI-H661 | 0.759
RERF-LC-KJ | 1

Same assay, conditions: first compound 8 µM

Cell Line | relative viability
NCI-H460 | 0.925
NCI-H1734 | 0.611
NCI-H520 | 0.399
NCI-H2405 | 0.989
SW 1573 | 0.717
201T | 1.13
NCI-H1915 | 1.06
HCC-827 | 1.14
LXF-289 | 1.15
NCI-H2347 | 1.08
NCI-H650 | 0.664
CAL-12T | 1.18
NCI-H1651 | 0.816
EPLC-272H | 0.728
NCI-H23 | 0.634
NCI-H1355 | 1.04
NCI-H322M | 1.25
NCI-H1437 | 0.444
NCI-H1755 | 0.904
NCI-H2085 | 1.05
HCC-15 | 0.948
PC-3 [JPC-3] | 0.855
EKVX | 1
LC-2-ad | 0.833
NCI-H1975 | 0.357
SK-LU-1 | 0.812
NCI-H661 | 0.852
RERF-LC-KJ | 0.818

What follows are cell lines tested with CN1CCN(CC1)C2=CC(=C(C=C2)NC3=NC(=C(S3)C(=O)C4=C(C=CC=C4Cl)Cl)N)OC [XMD14-99] + Nc1nc2[nH]cc(CCc3ccc(C(=O)N[C@@H](CCC(=O)O)C(=O)O)cc3)c2c(=O)[nH]1 [Pemetrexed] (partner 0.2 µM) in the same assay as above. Conditions: first compound 0.08 µM.
Method in brief: as §1

Cell Line | relative viability
NCI-H460 | 0.067
NCI-H1734 | 0.42
NCI-H520 | 0.624
NCI-H2405 | 1.02
SW 1573 | 0.726
201T | 0.331
NCI-H1915 | 0.472
HCC-827 | 0.214
LXF-289 | 0.692
NCI-H2347 | 0.46
NCI-H650 | 0.932
CAL-12T | 1.2
NCI-H1651 | 0.605
EPLC-272H | 0.406
NCI-H23 | 0.687
NCI-H1355 | 1.09
NCI-H322M | 0.654
NCI-H1437 | 0.303
NCI-H1755 | 0.419
NCI-H2085 | 0.9
HCC-15 | 0.208
PC-3 [JPC-3] | 1.28
EKVX | 0.366
LC-2-ad | 0.268
NCI-H1975 | 0.293
SK-LU-1 | 0.98
NCI-H661 | 0.86
RERF-LC-KJ | 0.469

Same assay, conditions: first compound 0.8 µM

Cell Line | relative viability
NCI-H460 | 0.066
NCI-H1734 | 0.409
NCI-H520 | 0.625
NCI-H2405 | 1.13
SW 1573 | 0.847
201T | 0.356
NCI-H1915 | 0.475
HCC-827 | 0.255
LXF-289 | 0.862
NCI-H2347 | 0.426
NCI-H650 | 1.03
CAL-12T | 1.28
NCI-H1651 | 0.564
EPLC-272H | 0.335
NCI-H23 | 0.783
NCI-H1355 | 1.06
NCI-H322M | 0.57
NCI-H1437 | 0.313
NCI-H1755 | 0.378
NCI-H2085 | 0.899
HCC-15 | 0.218
PC-3 [JPC-3] | 1.13
EKVX | 0.338
LC-2-ad | 0.298
NCI-H1975 | 0.307
SK-LU-1 | 1.02
NCI-H661 | 0.796
RERF-LC-KJ | 0.506

Same assay, conditions: first compound 2.53 µM

Cell Line | relative viability
NCI-H460 | 0.07
NCI-H1734 | 0.406
NCI-H520 | 0.596
NCI-H2405 | 1
SW 1573 | 0.788
201T | 0.32
NCI-H1915 | 0.431
HCC-827 | 0.265
LXF-289 | 0.85
NCI-H2347 | 0.391
NCI-H650 | 0.929
CAL-12T | 1.12
NCI-H1651 | 0.585
EPLC-272H | 0.324
NCI-H23 | 0.745
NCI-H1355 | 0.945
NCI-H322M | 0.606
NCI-H1437 | 0.307
NCI-H1755 | 0.37
NCI-H2085 | 0.839
HCC-15 | 0.221
PC-3 [JPC-3] | 1.1
EKVX | 0.328
LC-2-ad | 0.268
NCI-H1975 | 0.333
SK-LU-1 | 0.942
NCI-H661 | 0.779
RERF-LC-KJ | 0.452

Same assay, conditions: first compound 8 µM

Cell Line | relative viability
NCI-H460 | 0.0715
NCI-H1734 | 0.4
NCI-H520 | 0.501
NCI-H2405 | 0.654
SW 1573 | 0.776
201T | 0.281
NCI-H1915 | 0.426
HCC-827 | 0.218
LXF-289 | 0.781
NCI-H2347 | 0.35
NCI-H650 | 0.961
CAL-12T | 0.885
NCI-H1651 | 0.477
EPLC-272H | 0.291
NCI-H23 | 0.494
NCI-H1355 | 0.896
NCI-H322M | 0.535
NCI-H1437 | 0.27
NCI-H1755 | 0.391
NCI-H2085 | 0.65
HCC-15 | 0.209
PC-3 [JPC-3] | 0.635
EKVX | 0.362
LC-2-ad | 0.293
NCI-H1975 | 0.283
SK-LU-1 | 0.684
NCI-H661 | 0.678
RERF-LC-KJ | 0.449

The cell lines below were run with N[C@@H]1CCCN(c2c(/C=C3\SC(=O)NC3=O)cccc2-c2ccccc2)C1 [AZD1208] + O=C(CCCCCCC(=O)Nc1ccccc1)NO [Vorinostat] (partner 1 µM) in the same assay as above. Conditions: first compound 0.08 µM.
Method in brief: as §1

Cell Line | relative viability
NCI-H460 | 0.731
NCI-H1734 | 0.731
NCI-H520 | 0.735
NCI-H2405 | 1.13
SW 1573 | 0.505
201T | 0.961
NCI-H1915 | 0.545
HCC-827 | 0.991
LXF-289 | 0.791
NCI-H2347 | 0.531
NCI-H650 | 0.436
CAL-12T | 0.675
NCI-H1651 | 0.583
